Measured values reported in patent US11667602B2, “Compounds and their use” (AstraZeneca AB, priority 2020, dated 2023).

Target: T1, human RXFP1 (Homo sapiens, UniProt Q9HBX9)
T1 sequence (Q9HBX9 1-757): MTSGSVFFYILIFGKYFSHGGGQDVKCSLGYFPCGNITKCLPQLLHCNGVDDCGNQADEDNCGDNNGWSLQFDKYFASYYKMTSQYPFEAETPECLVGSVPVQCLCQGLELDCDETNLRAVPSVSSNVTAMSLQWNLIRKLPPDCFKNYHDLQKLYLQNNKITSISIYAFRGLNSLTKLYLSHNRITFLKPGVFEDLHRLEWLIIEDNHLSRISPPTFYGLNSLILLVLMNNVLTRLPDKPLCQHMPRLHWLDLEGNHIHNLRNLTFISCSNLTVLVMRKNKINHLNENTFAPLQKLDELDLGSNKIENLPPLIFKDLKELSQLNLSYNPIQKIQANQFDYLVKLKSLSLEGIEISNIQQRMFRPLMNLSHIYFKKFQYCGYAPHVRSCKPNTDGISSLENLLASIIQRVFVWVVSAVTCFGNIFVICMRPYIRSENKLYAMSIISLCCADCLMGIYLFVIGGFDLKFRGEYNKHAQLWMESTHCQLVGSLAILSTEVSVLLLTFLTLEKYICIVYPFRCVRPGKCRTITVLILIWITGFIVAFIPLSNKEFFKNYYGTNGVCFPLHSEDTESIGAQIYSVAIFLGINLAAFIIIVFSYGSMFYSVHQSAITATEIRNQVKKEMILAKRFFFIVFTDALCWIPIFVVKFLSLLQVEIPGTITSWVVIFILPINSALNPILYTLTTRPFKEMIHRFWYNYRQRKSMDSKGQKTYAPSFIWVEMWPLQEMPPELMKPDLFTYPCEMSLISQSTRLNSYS
Test: RXFP1 Hu cAMP (Test A)
Format: cell-based
Parameters: expressed in transfected cells; host or cells: Jump-In T-REx CHO-K1 cells (ThermoFisher), induced with 10 ng/ml doxycycline for 24 h
Conditions: RXFP1 Hu cAMP; for EC50: read-out: Test A EC50
Excerpt: To screen for modulators of hRXFP1, an assay identifying compounds that stimulate cAMP production via the Gs-coupled hRXFP1 receptor was used. cAMP HiRange HTRF kit (available from CisBio Bioassays, France; catalogue number 62AM6PEJ) was employed in large according to manufacturer's recommendations for detection of cAMP. The HTRF method is a competitive immunoassay between native cAMP produced by cells and cAMP labeled with the dye d2. The tracer binding is visualized with a cryptate labeled antibody for cAMP and the signal is thus inversely proportional to the amount of produced cAMP.
Cells: Jump-In™ T-REx™ CHO-K1 Cells (ThermoFisher) stably transfected with human RXFP1 was employed. Cells were induced to express human RXFP1 by treatment with 10 ng/ml doxycycline for 24 h. Cells were then cryopreserved for long term storage.
HTRF detection reagents: cAMP-d2 and anti-cAMP cryptate reconstituted according to CisBio instructions were diluted 1:40 in lysis buffer provided with the HTRF-kit.
3. 4 μL assay buffer with 1 mM IBMX (0.5 mM final concentration) to block phosphodiesterases was added with Multidrop Combi (ThermoFisher).
6. 4 μL cAMP-d2 in lysis buffer was added with Multidrop Combi.
7. 4 μL anti-cAMP cryptate in lysis buffer was added with Multidrop Combi
8. 2 h incubation at room temperature
Using a cAMP standard curve, HTRF data was converted to amount cAMP produced in the samples which was subsequentially used for calculation of concentration responses. Concentration response data were fitted with a four parameter logistic fit, the Hill equation. The results from the assay are reported in Table 36 as EC50 (μM) and Sinf (%).
Where the assay was run multiple times for the same compound, the geometric mean is reported.
Sinf is the fitted activity level, efficacy, at infinite concentration of test compound. To facilitate comparison of efficacy data, efficacy was normalized to % effect of the response stimulated by a saturating concentration of relaxin (1 nM). Where the assay was run multiple times for the same compound, the arithmetic mean is reported.

Row | Molecule | Test A Sinf [%] | EC50 [nM]
1 | CCC(C)(C)NC(=O)[C@H]1[C@@H]2CC[C@@H](C2)[C@H]1NC(=O)c1cc(O[C@H]2CC[C@@](C)(C(=O)O)CC2)c(C#N)cc1OC [Example 126] | 98 | 47
2 | COc1cc(F)c(O[C@H]2CC[C@@H](S(N)(=O)=O)CC2)cc1C(=O)N[C@@H]1[C@@H]2CC[C@@H](C2)[C@@H]1C(=O)Nc1cccc(S(=O)(=O)C(F)(F)F)c1 [Example 463, (1S,2S,3R,4R)-3-(4-Fluoro-2-methoxy-5-(((1s,4S)-4-sulfamoylcyclohexyl)oxy)benzamido)-N-(3-((trifluoromethyl)sulfonyl)phenyl)bicyclo[2.2.1]heptane-2-carboxamide] | 111 | 340
3 | COc1cc(F)c(-c2ccc(O)c(C(=O)O)c2)cc1C(=O)N[C@H]1[C@@H]2CC[C@@H](C2)[C@H]1C(=O)Nc1cccc(S(=O)(=O)C(F)(F)F)c1 (single isomer, unassigned) [Example 556] | 114 | 130
4 | COc1cc(C#N)c(O[C@H]2CC[C@@](C)(C(=O)O)CC2)cc1C(=O)Nc1cc(Cl)ccc1C(=O)NC(C)(C)C1CC1 [Example 165] | 111 | 12
5 | COc1cc(F)c(OC[C@H]2C[C@H](C(=O)O)C2)cc1C(=O)N[C@@H]1[C@@H]2CC[C@@H](C2)[C@@H]1C(=O)Nc1cccc(S(=O)(=O)C(F)(F)F)c1 [Example 472, (1R,3r)-3-((2-Fluoro-4-methoxy-5-(((1R,2R,3S,4S)-3-((3-((trifluoromethyl)sulfonyl)phenyl)carbamoyl)bicyclo[2.2.1]heptan-2-yl)carbamoyl)phenoxy)methyl)cyclobutane-1-carboxylic acid] | 91 | –
6 | CCC(C)(C)NC(=O)c1ccc(Cl)cc1NC(=O)c1cc(O[C@H]2CC[C@@](C)(C(=O)O)CC2)c(C#N)cc1OC [Example 163] | 151 | 67
7 | (1R,4s)-4-(2-fluoro-4-methoxy-5-(((3S*,4S*)-3-((3-((trifluoromethyl)sulfonyl)phenyl)carbamoyl)tetrahydro-2H-pyran-4-yl)carbamoyl)phenoxy)-1-methylcyclohexane-1-carboxylic acid [Example 519] | 101 | –
8 | COc1cc(C#N)c(O[C@H]2CC[C@@](C)(C(=O)O)CC2)cc1C(=O)N[C@@H]1[C@H]2CC[C@H](C2)[C@@H]1C(=O)N[C@@H](C)C(C)C [Example 127] | 71 | 990
9 | COc1cc(F)c(-c2c[nH]c(C(=O)O)c2)cc1C(=O)N[C@H]1[C@@H](C(=O)Nc2cccc(S(=O)(=O)C(F)(F)F)c2)[C@@H]2C=C[C@H]1C2 (racemic) [Example 229] | 55 | 3300
10 | COc1cc(F)c(OC2CCC(C)(C(=O)O)CC2)cc1C(=O)NC1CC(OC)CC1C(=O)Nc1cccc(S(=O)(=O)C(F)(F)F)c1 (single isomer, unassigned) [Example 522, (1R,4s)-4-(2-Fluoro-4-methoxy-5-(((1S*,2R*,4S*)-4-methoxy-2-((3-((trifluoromethyl)sulfonyl)phenyl)carbamoyl)cyclopentyl)carbamoyl)phenoxy)-1-methylcyclohexane-1-carboxylic acid] | – | > 40000
11 | COc1cc(F)c(O[C@H]2CC[C@@H](C(=O)O)CC2)cc1C(=O)N[C@@H]1[C@H](C(=O)Nc2ccc(F)c(C(F)(F)F)c2)[C@H]2C=C[C@@H]1C2 [Example 501, (1R,4s)-4-(2-Fluoro-5-(((1S,2S,3R,4R)-3-((4-fluoro-3-(trifluoromethyl)phenyl)carbamoyl)bicyclo[2.2.1]hept-5-en-2-yl)carbamoyl)-4-methoxyphenoxy)cyclohexane-1-carboxylic acid] | 82 | –
12 | COc1ccc(Oc2ccc(C(=O)O)cc2)cc1C(=O)N[C@H]1[C@@H](C(=O)Nc2cccc(S(=O)(=O)C(F)(F)F)c2)[C@@H]2C=C[C@H]1C2 (racemic) [Example 427] | 86 | 680
13 | COc1cc(F)c(O[C@H]2CC[C@@H](C(=O)OC)CC2)cc1C(=O)N[C@@H]1C[C@H](O)C[C@@H]1C(=O)Nc1cccc(S(=O)(=O)C(F)(F)F)c1 (racemic) [Example 496] | – | > 40000
